Values after ≈ are worked out from the molar mass of the structure shown.
Each compound was assayed on Proteus mirabilis (assay: Antibacterial activity against Proteus mirabilis M 29 mutant after 18 hrs by Etest method). Settings: not given.
Assay type: functional

Row | Compound | MIC
1 | GENTAMICIN | 0.19 µg/mL

Same assay, conditions: M 29, 18 h

Row | Compound | MIC
2 | CC1(C)S[C@@H]2[C@H](NC(=O)[C@H](N)c3ccccc3)C(=O)N2[C@H]1C(=O)O [AMPICILLIN] | > 256 µg/mL

The compounds below were run on Proteus mirabilis (assay: Antibacterial activity against Proteus mirabilis M 12 mutant after 18 hrs by Etest method). Settings: not given.
Assay type: functional

Row | Compound | MIC
3 | GENTAMICIN | 0.06 µg/mL

Same assay, conditions: M 12, 18 h

Row | Compound | MIC
4 | CC1(C)S[C@@H]2[C@H](NC(=O)[C@H](N)c3ccccc3)C(=O)N2[C@H]1C(=O)O [AMPICILLIN] | 0.13 µg/mL (≈ 0.372 µM)

The compounds below were run on Proteus mirabilis (assay: Antibacterial activity against Proteus mirabilis M 42 mutant after 18 hrs by Etest method). Settings: not given.
Assay type: functional

Row | Compound | MIC
5 | GENTAMICIN | 0.25 µg/mL

Same assay, conditions: M 42, 18 h

Row | Compound | MIC
6 | CC1(C)S[C@@H]2[C@H](NC(=O)[C@H](N)c3ccccc3)C(=O)N2[C@H]1C(=O)O [AMPICILLIN] | > 256 µg/mL

Each compound was assayed on Proteus mirabilis (assay: Antibacterial activity against Proteus mirabilis B2 after 18 hrs by Etest method). Settings: not given.
Assay type: functional

Row | Compound | MIC
7 | GENTAMICIN | 0.38 µg/mL

Same assay, conditions: B2, 18 h

Row | Compound | MIC
8 | CC1(C)S[C@@H]2[C@H](NC(=O)[C@H](N)c3ccccc3)C(=O)N2[C@H]1C(=O)O [AMPICILLIN] | > 256 µg/mL

What follows are compounds tested on Proteus mirabilis (assay: Antibacterial activity against Proteus mirabilis M 19 mutant after 18 hrs by Etest method). Settings: not given.
Assay type: functional

Row | Compound | MIC
9 | GENTAMICIN | 0.13 µg/mL

Same assay, conditions: M 19, 18 h

Row | Compound | MIC
10 | CC1(C)S[C@@H]2[C@H](NC(=O)[C@H](N)c3ccccc3)C(=O)N2[C@H]1C(=O)O [AMPICILLIN] | 12 µg/mL (≈ 34.3 µM)

Each compound was assayed on Proteus mirabilis (assay: Antibacterial activity against Proteus mirabilis NP43 after 18 hrs by Etest method). Settings: not given.
Assay type: functional

Row | Compound | MIC
11 | GENTAMICIN | 0.1 µg/mL

Same assay, conditions: NP43, 18 h

Row | Compound | MIC
12 | CC1(C)S[C@@H]2[C@H](NC(=O)[C@H](N)c3ccccc3)C(=O)N2[C@H]1C(=O)O [AMPICILLIN] | 0.4 µg/mL (≈ 1.14 µM)

Each compound was assayed on Proteus mirabilis (assay: Antibacterial activity against Proteus mirabilis M 26 mutant after 18 hrs by Etest method). Settings: not given.
Assay type: functional

Row | Compound | MIC
13 | GENTAMICIN | 0.13 µg/mL

Same assay, conditions: M 26, 18 h

Row | Compound | MIC
14 | CC1(C)S[C@@H]2[C@H](NC(=O)[C@H](N)c3ccccc3)C(=O)N2[C@H]1C(=O)O [AMPICILLIN] | > 256 µg/mL

What follows are compounds tested on Proteus mirabilis (assay: Antibacterial activity against Proteus mirabilis M 17 mutant after 18 hrs by Etest method). Settings: not given.
Assay type: functional

Row | Compound | MIC
15 | GENTAMICIN | 0.06 µg/mL

Same assay, conditions: M 17, 18 h

Row | Compound | MIC
16 | CC1(C)S[C@@H]2[C@H](NC(=O)[C@H](N)c3ccccc3)C(=O)N2[C@H]1C(=O)O [AMPICILLIN] | 0.19 µg/mL (≈ 0.544 µM)

What follows are compounds tested on Proteus mirabilis (assay: Antibacterial activity against Proteus mirabilis M 21 mutant after 18 hrs by Etest method). Settings: not given.
Assay type: functional

Row | Compound | MIC
17 | GENTAMICIN | 0.13 µg/mL

Same assay, conditions: M 21, 18 h

Row | Compound | MIC
18 | CC1(C)S[C@@H]2[C@H](NC(=O)[C@H](N)c3ccccc3)C(=O)N2[C@H]1C(=O)O [AMPICILLIN] | 16 µg/mL (≈ 45.8 µM)

Each compound was assayed on Proteus mirabilis (assay: Antibacterial activity against Proteus mirabilis M 35 mutant after 18 hrs by Etest method). Settings: not given.
Assay type: functional

Row | Compound | MIC
19 | GENTAMICIN | 0.25 µg/mL

Same assay, conditions: M 35, 18 h

Row | Compound | MIC
20 | CC1(C)S[C@@H]2[C@H](NC(=O)[C@H](N)c3ccccc3)C(=O)N2[C@H]1C(=O)O [AMPICILLIN] | > 256 µg/mL

The compounds below were run on Proteus mirabilis (assay: Antibacterial activity against Proteus mirabilis M 55 mutant after 18 hrs by Etest method). Settings: not given.
Assay type: functional

Row | Compound | MIC
21 | GENTAMICIN | 0.38 µg/mL

Same assay, conditions: M 55, 18 h

Row | Compound | MIC
22 | CC1(C)S[C@@H]2[C@H](NC(=O)[C@H](N)c3ccccc3)C(=O)N2[C@H]1C(=O)O [AMPICILLIN] | > 256 µg/mL

Each compound was assayed on Proteus mirabilis (assay: Antibacterial activity against Proteus mirabilis NP37 after 18 hrs by Etest method). Settings: not given.
Assay type: functional

Row | Compound | MIC
23 | GENTAMICIN | 0.38 µg/mL

Same assay, conditions: NP37, 18 h

Row | Compound | MIC
24 | CC1(C)S[C@@H]2[C@H](NC(=O)[C@H](N)c3ccccc3)C(=O)N2[C@H]1C(=O)O [AMPICILLIN] | > 256 µg/mL

What follows are compounds tested on Proteus mirabilis (assay: Antibacterial activity against Proteus mirabilis M 40 mutant after 18 hrs by Etest method). Settings: not given.
Assay type: functional

Row | Compound | MIC
25 | GENTAMICIN | 0.13 µg/mL

Same assay, conditions: M 40, 18 h

Row | Compound | MIC
26 | CC1(C)S[C@@H]2[C@H](NC(=O)[C@H](N)c3ccccc3)C(=O)N2[C@H]1C(=O)O [AMPICILLIN] | > 256 µg/mL

The compounds below were run on Proteus mirabilis (assay: Antibacterial activity against Proteus mirabilis NP14 after 18 hrs by Etest method). Settings: not given.
Assay type: functional

Row | Compound | MIC
27 | GENTAMICIN | 0.13 µg/mL

Same assay, conditions: NP14, 18 h

Row | Compound | MIC
28 | CC1(C)S[C@@H]2[C@H](NC(=O)[C@H](N)c3ccccc3)C(=O)N2[C@H]1C(=O)O [AMPICILLIN] | 16 µg/mL (≈ 45.8 µM)

The compounds below were run on Escherichia coli (assay: Antibacterial activity against Escherichia coli 10418 after 18 hrs by Etest method). Settings: not given.
Assay type: functional

Row | Compound | MIC
29 | GENTAMICIN | 0.09 µg/mL

Same assay, conditions: Escherichia coli, 10418, 18 h

Row | Compound | MIC
30 | CC1(C)S[C@@H]2[C@H](NC(=O)[C@H](N)c3ccccc3)C(=O)N2[C@H]1C(=O)O [AMPICILLIN] | 0.5 µg/mL (≈ 1.43 µM)

What follows are compounds tested on Proteus mirabilis (assay: Antibacterial activity against Proteus mirabilis NP55 after 18 hrs by Etest method). Settings: not given.
Assay type: functional

Row | Compound | MIC
31 | GENTAMICIN | 0.1 µg/mL

Same assay, conditions: NP55, 18 h

Row | Compound | MIC
32 | CC1(C)S[C@@H]2[C@H](NC(=O)[C@H](N)c3ccccc3)C(=O)N2[C@H]1C(=O)O [AMPICILLIN] | > 256 µg/mL

These compounds were tested on Proteus mirabilis (assay: Antibacterial activity against Proteus mirabilis M 44 mutant after 18 hrs by Etest method). Settings: not given.
Assay type: functional

Row | Compound | MIC
33 | GENTAMICIN | 0.38 µg/mL

Same assay, conditions: M 44, 18 h

Row | Compound | MIC
34 | CC1(C)S[C@@H]2[C@H](NC(=O)[C@H](N)c3ccccc3)C(=O)N2[C@H]1C(=O)O [AMPICILLIN] | > 256 µg/mL

What follows are compounds tested on Proteus mirabilis (assay: Antibacterial activity against Proteus mirabilis M 23 mutant after 18 hrs by Etest method). Settings: not given.
Assay type: functional

Row | Compound | MIC
35 | GENTAMICIN | 0.09 µg/mL

Same assay, conditions: M 23, 18 h

Row | Compound | MIC
36 | CC1(C)S[C@@H]2[C@H](NC(=O)[C@H](N)c3ccccc3)C(=O)N2[C@H]1C(=O)O [AMPICILLIN] | 12 µg/mL (≈ 34.3 µM)

Each compound was assayed on Proteus mirabilis (assay: Antibacterial activity against Proteus mirabilis M 31 mutant after 18 hrs by Etest method). Settings: not given.
Assay type: functional

Row | Compound | MIC
37 | GENTAMICIN | 0.13 µg/mL

Same assay, conditions: M 31, 18 h

Row | Compound | MIC
38 | CC1(C)S[C@@H]2[C@H](NC(=O)[C@H](N)c3ccccc3)C(=O)N2[C@H]1C(=O)O [AMPICILLIN] | > 256 µg/mL

What follows are compounds tested on Proteus mirabilis (assay: Antibacterial activity against Proteus mirabilis M 48 mutant after 18 hrs by Etest method). Settings: not given.
Assay type: functional

Row | Compound | MIC
39 | GENTAMICIN | 0.25 µg/mL

Same assay, conditions: M 48, 18 h

Row | Compound | MIC
40 | CC1(C)S[C@@H]2[C@H](NC(=O)[C@H](N)c3ccccc3)C(=O)N2[C@H]1C(=O)O [AMPICILLIN] | > 256 µg/mL
